Legend:
Format in all cases: biochemical
VEGFR2 = biological target: T1, VEGFR2 (Homo sapiens, UniProt P35968); test: VEGFR2 enzyme activity assay (Caliper LC3000 mobility shift); conditions: 160 uM ATP (Km), 1 nM VEGFR2, 90 minutes at RT
T1 construct: purchased BPS Bioscience; San Diego, Calif; 40301
Method: (§1) Enzyme activity for VEGFR3, VEGFR2 and Flt3 were measured on the Caliper Life Sciences LC3000 (Hopkinton, Mass.). The system utilizes the principle of electroosmotic flow to separate and quantify the amount of phosphorylated-Fluorescein-labelled-peptide (product) from unphosphorylated-Fluorescein-labelled peptide (substrate). The amount of product and substrate are determined by measuring the peak heights from the electropherogram. The enzyme activity is then quantified by dividing the amount of product by the sum of the product and substrate. The inhibitory activity of a sample is measured by comparing the enzyme activity in the presence of sample versus the enzyme activity in the presence of dimethylsufoxide (DMSO). Specific assay conditions for each enzyme are listed below:
(§2) VEGFR2 assay: The peptide substrate at 1 uM (5-FL-EEPLYWSFPAKKK-CONH2; synthesized at Tufts University, Boston, Mass.) was incubated with 160 uM of ATP, corresponding to the Michaelis-Menten (Km) constant of the enzyme/substrate reaction, and 1 nM of VEGFR2 (BPS Bioscience; San Diego, Calif.; Cat. No. 40301) for 90 minutes at RT. After 90 minutes, the reaction was stopped by the addition of 10 mM EDTA. The substrate and product were then separated on the LC3000.

Flt3 = biological target: T2, Flt3 (Homo sapiens, UniProt P36888); test: Flt3 enzyme activity assay (Caliper LC3000 mobility shift); conditions: 350 uM ATP (Km), 3 nM Flt3, 90 minutes at RT
T2 construct: purchased BPS Bioscience; San Diego, Calif; 40225
T2 sequence (P36888 27-993): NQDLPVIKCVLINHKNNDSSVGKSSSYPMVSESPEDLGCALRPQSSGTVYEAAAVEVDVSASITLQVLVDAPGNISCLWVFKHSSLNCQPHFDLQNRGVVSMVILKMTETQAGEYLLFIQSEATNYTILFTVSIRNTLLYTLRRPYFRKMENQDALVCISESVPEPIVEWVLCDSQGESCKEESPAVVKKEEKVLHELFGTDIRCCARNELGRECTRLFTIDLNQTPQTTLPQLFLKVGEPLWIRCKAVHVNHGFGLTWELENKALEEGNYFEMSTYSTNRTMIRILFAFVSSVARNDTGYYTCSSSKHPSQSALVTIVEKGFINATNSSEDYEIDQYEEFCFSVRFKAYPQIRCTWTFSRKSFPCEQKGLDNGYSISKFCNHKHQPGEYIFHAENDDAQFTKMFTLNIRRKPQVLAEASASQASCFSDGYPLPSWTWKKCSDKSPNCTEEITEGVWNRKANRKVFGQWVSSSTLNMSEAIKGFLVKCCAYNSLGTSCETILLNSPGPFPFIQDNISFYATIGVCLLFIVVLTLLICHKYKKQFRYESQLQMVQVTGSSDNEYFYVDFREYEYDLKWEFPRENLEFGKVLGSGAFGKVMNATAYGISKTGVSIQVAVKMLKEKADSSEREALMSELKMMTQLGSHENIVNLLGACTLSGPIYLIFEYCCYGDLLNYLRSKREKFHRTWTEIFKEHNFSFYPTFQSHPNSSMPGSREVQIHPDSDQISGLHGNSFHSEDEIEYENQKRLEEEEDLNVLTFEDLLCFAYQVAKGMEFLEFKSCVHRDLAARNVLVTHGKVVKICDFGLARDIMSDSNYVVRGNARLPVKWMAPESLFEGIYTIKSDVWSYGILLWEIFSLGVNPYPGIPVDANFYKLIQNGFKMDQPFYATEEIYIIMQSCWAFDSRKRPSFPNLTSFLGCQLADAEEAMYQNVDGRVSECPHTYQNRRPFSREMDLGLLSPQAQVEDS
Method: as §1
as §2, with “Flt3 assay:” for “VEGFR2 assay:”, “uM (FITC-AHA-UEAIYAAPFAKKK-CONH2;” for “uM (5-FL-EEPLYWSFPAKKK-CONH2;”, “with 350” for “with 160”, “and 3” for “and 1”, “of Flt3” for “of VEGFR2”, “No. 40225)” for “No. 40301)”

VEGFR3 = biological target: T3, VEGFR3 (Homo sapiens, UniProt P35916); test: VEGFR3 enzyme activity assay (Caliper LC3000 mobility shift); conditions: 400 uM ATP (Km), 0.4 nM VEGFR3, 90 minutes at RT
T3 construct: purchased Millpore Corp. (Millipore) 14-681
T3 sequence (P35916 25-1363): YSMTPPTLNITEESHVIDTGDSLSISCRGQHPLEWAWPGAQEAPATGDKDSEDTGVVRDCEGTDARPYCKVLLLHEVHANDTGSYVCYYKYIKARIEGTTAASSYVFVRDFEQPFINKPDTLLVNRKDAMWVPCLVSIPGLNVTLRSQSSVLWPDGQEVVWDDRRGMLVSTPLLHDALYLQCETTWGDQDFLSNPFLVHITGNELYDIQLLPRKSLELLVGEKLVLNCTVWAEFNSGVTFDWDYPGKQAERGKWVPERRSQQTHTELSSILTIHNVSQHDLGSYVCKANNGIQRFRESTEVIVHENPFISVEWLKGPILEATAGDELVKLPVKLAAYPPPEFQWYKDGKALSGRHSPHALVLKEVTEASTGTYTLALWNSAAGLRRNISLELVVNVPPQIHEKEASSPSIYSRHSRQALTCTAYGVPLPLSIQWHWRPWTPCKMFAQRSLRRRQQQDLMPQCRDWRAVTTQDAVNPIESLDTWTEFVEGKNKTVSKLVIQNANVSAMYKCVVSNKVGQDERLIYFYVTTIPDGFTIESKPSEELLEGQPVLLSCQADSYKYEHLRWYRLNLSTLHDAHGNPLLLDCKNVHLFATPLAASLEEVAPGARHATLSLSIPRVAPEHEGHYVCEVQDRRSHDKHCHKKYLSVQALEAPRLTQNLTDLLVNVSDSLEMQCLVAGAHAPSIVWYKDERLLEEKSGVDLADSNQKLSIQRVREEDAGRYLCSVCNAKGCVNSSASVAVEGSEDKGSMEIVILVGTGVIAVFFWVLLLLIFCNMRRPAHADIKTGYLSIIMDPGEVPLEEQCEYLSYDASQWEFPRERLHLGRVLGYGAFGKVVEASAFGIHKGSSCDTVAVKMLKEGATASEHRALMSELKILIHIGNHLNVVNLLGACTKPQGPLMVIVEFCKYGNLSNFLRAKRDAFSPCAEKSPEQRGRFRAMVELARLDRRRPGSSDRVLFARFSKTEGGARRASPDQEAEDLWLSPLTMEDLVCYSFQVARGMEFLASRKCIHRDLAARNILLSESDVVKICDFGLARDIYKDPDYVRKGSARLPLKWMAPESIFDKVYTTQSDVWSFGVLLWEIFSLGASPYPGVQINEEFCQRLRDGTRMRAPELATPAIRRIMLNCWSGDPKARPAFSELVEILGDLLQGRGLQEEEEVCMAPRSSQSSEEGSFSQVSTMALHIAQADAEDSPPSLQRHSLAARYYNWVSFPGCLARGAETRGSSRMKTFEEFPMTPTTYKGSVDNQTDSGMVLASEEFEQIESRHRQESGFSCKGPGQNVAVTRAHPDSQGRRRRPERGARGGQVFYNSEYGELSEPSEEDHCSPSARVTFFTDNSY
Method: as §1
VEGFR3 assay: The peptide substrate at 1 uM (FITC-KKKKEEIYFFF-CONH2; synthesized at Tufts University, Boston, Mass.) was incubated with 400 uM of ATP, corresponding to the Michaelis-Menten (Km) constant of the enzyme/substrate reaction, and 0.4 nM of VEGFR3 (Millpore Corp., Cat. No. 14-681) for 90 minutes at RT. After 90 minutes, the reaction was stopped by the addition of 10 mM EDTA. The substrate and product were then separated on the LC3000.

Measured: IC50

T1 sequence (P35968 20-1356): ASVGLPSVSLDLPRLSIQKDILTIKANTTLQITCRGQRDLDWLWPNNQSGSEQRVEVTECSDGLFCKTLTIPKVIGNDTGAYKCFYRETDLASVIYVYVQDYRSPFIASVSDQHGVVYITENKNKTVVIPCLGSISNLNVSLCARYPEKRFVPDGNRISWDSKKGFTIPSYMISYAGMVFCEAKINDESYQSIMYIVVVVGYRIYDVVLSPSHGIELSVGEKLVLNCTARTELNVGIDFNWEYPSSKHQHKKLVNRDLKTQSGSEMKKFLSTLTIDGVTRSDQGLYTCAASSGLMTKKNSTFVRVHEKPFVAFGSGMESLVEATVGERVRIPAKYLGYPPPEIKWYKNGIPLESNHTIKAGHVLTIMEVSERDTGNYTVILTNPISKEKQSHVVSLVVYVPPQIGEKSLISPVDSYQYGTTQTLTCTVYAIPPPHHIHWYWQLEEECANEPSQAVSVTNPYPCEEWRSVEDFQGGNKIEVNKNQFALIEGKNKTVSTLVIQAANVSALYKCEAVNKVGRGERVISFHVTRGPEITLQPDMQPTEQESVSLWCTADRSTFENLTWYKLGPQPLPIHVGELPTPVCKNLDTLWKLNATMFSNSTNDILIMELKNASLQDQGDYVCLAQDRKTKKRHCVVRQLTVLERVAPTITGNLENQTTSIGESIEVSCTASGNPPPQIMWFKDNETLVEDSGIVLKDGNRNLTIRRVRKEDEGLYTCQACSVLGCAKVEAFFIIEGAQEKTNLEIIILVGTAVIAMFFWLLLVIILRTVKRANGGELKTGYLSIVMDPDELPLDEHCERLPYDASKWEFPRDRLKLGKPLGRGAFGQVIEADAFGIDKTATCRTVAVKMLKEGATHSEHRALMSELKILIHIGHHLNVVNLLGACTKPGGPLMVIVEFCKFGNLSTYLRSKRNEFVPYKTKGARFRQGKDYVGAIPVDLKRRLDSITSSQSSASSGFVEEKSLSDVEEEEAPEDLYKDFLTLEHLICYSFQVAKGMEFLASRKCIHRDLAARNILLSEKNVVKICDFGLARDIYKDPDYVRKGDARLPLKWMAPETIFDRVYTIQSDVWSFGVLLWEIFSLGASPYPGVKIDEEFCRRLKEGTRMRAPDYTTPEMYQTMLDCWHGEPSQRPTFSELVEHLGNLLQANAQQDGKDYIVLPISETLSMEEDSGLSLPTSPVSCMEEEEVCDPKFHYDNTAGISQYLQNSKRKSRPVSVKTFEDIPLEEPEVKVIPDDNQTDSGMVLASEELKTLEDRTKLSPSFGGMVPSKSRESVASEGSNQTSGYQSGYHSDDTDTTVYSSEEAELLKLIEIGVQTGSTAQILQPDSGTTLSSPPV

COc1ccc(C#Cc2ccnc3[nH]ccc23)cc1 [compound 89]
> 1 µM: VEGFR2 | Flt3 | VEGFR3

N#Cc1cncc(C#Cc2ccnc3[nH]ccc23)c1 [compound 91]
> 1 µM: VEGFR2 | Flt3 | VEGFR3

C(#Cc1ccnc2[nH]ccc12)c1cccc(-n2cccc2)c1 [compound 92]
> 1 µM: VEGFR2 | Flt3 | VEGFR3

C(#Cc1ccnc2[nH]ccc12)c1ncccn1 [compound 93]
> 1 µM: VEGFR2 | Flt3 | VEGFR3

Cc1cc(C#Cc2ccnc3[nH]ccc23)ccc1C#N [compound 94]
> 1 µM: VEGFR2 | Flt3 | VEGFR3

C#Cc1ccc(C#Cc2ccnc3[nH]ccc23)cc1 [compound 95]
> 1 µM: VEGFR2 | Flt3 | VEGFR3

C#Cc1ccnc2[nH]ccc12 [compound 96]
> 1 µM: VEGFR2 | Flt3 | VEGFR3

C(#Cc1ncnc2sc3c(c12)CCCC3)c1ccccc1 [compound 97]
> 1 µM: VEGFR2 | Flt3 | VEGFR3

C(#Cc1ccnc2[nH]ccc12)c1cccc(-c2ccccc2)c1 [compound 98]
> 1 µM: VEGFR2 | Flt3 | VEGFR3

Nc1cccc(C#Cc2ccnc3[nH]ccc23)c1 [compound 99]
> 1 µM: VEGFR2 | Flt3 | VEGFR3

N#Cc1ccc(C#Cc2ccnc3[nH]ccc23)cc1 [compound 100]
> 1 µM: VEGFR2 | Flt3 | VEGFR3

C(#Cc1ccnc2[nH]ccc12)c1ccccc1-c1cccs1 [compound 101]
> 1 µM: VEGFR2 | Flt3 | VEGFR3

CC(C)Oc1cccc(C#Cc2ccnc3[nH]ccc23)c1 [compound 102]
> 1 µM: VEGFR2 | Flt3 | VEGFR3

C(#Cc1ccnc2[nH]ccc12)c1cccc(Nc2ccccc2)c1 [compound 104]
> 1 µM: VEGFR2 | Flt3 | VEGFR3

FC(F)(F)c1ccccc1C#Cc1cnc2[nH]ccc2c1 [compound 105]
> 1 µM: VEGFR2 | Flt3 | VEGFR3

COC(=O)c1cccc(C#Cc2ccnc3[nH]ccc23)n1 [compound 106]
> 1 µM: VEGFR2 | Flt3 | VEGFR3

FC(F)Oc1ccc(C#Cc2ccnc3[nH]ccc23)cc1 [compound 107]
> 1 µM: VEGFR2 | Flt3 | VEGFR3

C(#Cc1cnc2[nH]ccc2c1)c1ccccc1 [compound 108]
> 1 µM: VEGFR2 | Flt3 | VEGFR3

C[Si](C)(C)C#Cc1ncnc2[nH]ccc12 [compound 109]
> 1 µM: VEGFR2 | Flt3 | VEGFR3

N#Cc1ccc(C#Cc2ccnc3[nH]ccc23)cn1 [compound 110]
> 1 µM: VEGFR2 | Flt3 | VEGFR3

C#Cc1ncnc2[nH]ccc12 [compound 111]
> 1 µM: VEGFR2 | Flt3 | VEGFR3

C[Si](C)(C)C#Cc1ncnc2sc3c(c12)CCCC3 [compound 112]
> 1 µM: VEGFR2 | Flt3 | VEGFR3

O=C(NCc1ccccc1C#Cc1ccnc2[nH]ccc12)Nc1ccccc1 [compound 113]
> 1 µM: VEGFR2 | Flt3 | VEGFR3

Cc1nc(-c2ccc(C#Cc3ccnc4[nH]ccc34)cc2)no1 [compound 114]
> 1 µM: VEGFR2 | Flt3 | VEGFR3

CC(=O)c1ccc(C#Cc2ccnc3[nH]ccc23)nc1 [compound 115]
> 1 µM: VEGFR2 | Flt3 | VEGFR3

FC(F)(F)c1cccc(C#Cc2ccnc3[nH]ccc23)c1 [compound 116]
> 1 µM: VEGFR2 | Flt3 | VEGFR3

Cc1cccc(C)c1C#Cc1ccnc2[nH]ccc12 [compound 117]
> 1 µM: VEGFR2 | Flt3 | VEGFR3

NCc1ccccc1C#Cc1ccnc2[nH]ccc12 [compound 118]
> 1 µM: VEGFR2 | Flt3 | VEGFR3

C(#Cc1ccnc2[nH]ccc12)c1ccc(-c2cnco2)cc1 [compound 119]
> 1 µM: VEGFR2 | Flt3 | VEGFR3

FC(F)(F)Oc1ccc(C#Cc2ccnc3[nH]ccc23)cc1 [compound 120]
> 1 µM: VEGFR2 | Flt3 | VEGFR3

O=C(Cc1ccccc1C#Cc1ccnc2[nH]ccc12)N1CCC(F)(F)CC1 [compound 121]
> 1 µM: VEGFR2 | Flt3 | VEGFR3

COC(=O)c1ccc(C#Cc2ccnc3[nH]ccc23)cc1OC [compound 122]
> 1 µM: VEGFR2 | Flt3 | VEGFR3

FC(F)(F)Oc1cccc(C#Cc2ccnc3[nH]ccc23)c1 [compound 123]
> 1 µM: VEGFR2 | Flt3 | VEGFR3

CN(C)c1ccc(C#Cc2ccnc3[nH]ccc23)cc1 [compound 124]
> 1 µM: VEGFR2 | Flt3 | VEGFR3

CN(C)c1ccc(C#Cc2ncnc3sc4c(c23)CCCC4)cc1 [compound 125]
> 1 µM: VEGFR2 | Flt3 | VEGFR3

C(#Cc1ccnc2[nH]ccc12)c1ccc(-c2cccs2)cc1 [compound 126]
> 1 µM: VEGFR2 | Flt3 | VEGFR3

C(#Cc1ccnc2[nH]ccc12)c1ccccc1-c1ccccc1 [compound 127]
> 1 µM: VEGFR2 | Flt3 | VEGFR3

C(#Cc1ccnc2[nH]ccc12)c1ccc(N2CCOCC2)cc1 [compound 128]
> 1 µM: VEGFR2 | Flt3 | VEGFR3

Nc1cc(C#Cc2ccccc2CNC(=O)C(F)(F)F)ccn1 [compound 129]
> 1 µM: VEGFR2 | Flt3 | VEGFR3

COC(=O)c1ccc(C#Cc2ccnc3[nH]ccc23)cc1 [compound 130]
> 1 µM: VEGFR2 | Flt3 | VEGFR3

C(#Cc1ccnc2[nH]ccc12)c1ccc(-c2nnc(-c3ccccc3)o2)cc1 [compound 131]
> 1 µM: VEGFR2 | Flt3 | VEGFR3

COc1ccc(C#Cc2ccnc(NC(=O)OC(C)(C)C)c2)cc1 [compound 132]
> 1 µM: VEGFR2 | Flt3 | VEGFR3

C(#Cc1ccnc2[nH]ccc12)c1ccc(-c2ccccc2)cc1 [compound 133]
> 1 µM: VEGFR2 | Flt3 | VEGFR3

O=C(c1ccc(C#Cc2ccnc3[nH]ccc23)cc1)C1CC1 [compound 134]
> 1 µM: VEGFR2 | Flt3 | VEGFR3

FC(F)(F)c1ccc(C#Cc2ccnc3[nH]ccc23)cc1 [compound 135]
> 1 µM: VEGFR2 | Flt3 | VEGFR3
